Data taken from PubChem BioAssay AID1322 (NMMLSC, 2008).
Active and inactive are the calls of the source. How the calls were made is not given here.

Molecular target: Bcl-2-like protein 1 (Homo sapiens) (UniProt Q07817)
Test: Bcl-XL binding to Bim peptide disruption – biochemical, multiplexed, bead flow cytometry, human Bcl-XL, dose response (AID 1322); on inhibition: test concentration not given here
Details: Bead-based flow cytometry, MCF; for inhibition: active compounds read high

Chain of Bcl-2-like protein 1 (Homo sapiens) (Q07817 whole entry, looked up): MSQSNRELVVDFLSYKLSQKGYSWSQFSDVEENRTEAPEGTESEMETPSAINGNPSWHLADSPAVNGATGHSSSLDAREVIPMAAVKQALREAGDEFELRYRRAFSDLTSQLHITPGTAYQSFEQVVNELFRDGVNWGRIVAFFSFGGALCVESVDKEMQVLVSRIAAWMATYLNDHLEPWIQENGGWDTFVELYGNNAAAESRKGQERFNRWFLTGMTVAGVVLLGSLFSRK

O=[N+]([O-])c1ccc(N/N=C/c2ccc(O)c(O)c2O)c(S(=O)(=O)N2CCOCC2)c1
inhibition: inactive

Cc1ccc(-c2c3c([nH]c(=S)c2C#N)CCCC3)o1
inhibition: inactive

O=C(NCC1CCCO1)c1ccc2c(=O)n(-c3ccc(F)cc3)c(=S)[nH]c2c1 (configuration not stated)
inhibition: inactive

CNC(=O)/C(C#N)=C/c1c(N(Cc2ccccc2)Cc2ccccc2)nc2c(C)cccn2c1=O
inhibition: inactive

Cc1cc(N)ccc1N1CCCC1
inhibition: inactive

c1ccc(Nc2nc(-c3ccncc3)cs2)cc1
inhibition: inactive

CCOC(=O)CSC1=NC(=O)/C(=C/c2ccc(Br)cc2)S1
outcome: inactive

C=CS(=O)c1sc(Cl)c(N2CCOCC2)c1[N+](=O)[O-] (configuration not stated)
outcome: inactive

CCOC(=O)/C(=C\c1ccc(Cl)cc1)c1nc2sc(C)c(C)c2c(=O)[nH]1
inhibition: inactive

COc1ccc(CC(=O)Nc2ccccc2Oc2ccccc2)cc1
outcome: inactive

CC(C)Cc1cc(-c2ccco2)c(C#N)c(N)n1
inhibition: inactive

CC(C)CNC(=O)c1cccc(NC(=O)c2ccc(Cl)c([N+](=O)[O-])c2)c1
inhibition: inactive

FC(F)(F)c1ccc2c(c1)C1C=CCC1C(c1ccncc1)N2 (configuration not stated)
outcome: inactive

Cc1cnnn1-c1ccc(C(=O)CCl)cc1
inhibition: inactive

CN=C(NC1CCCCC1)c1ccc(Cl)cc1
outcome: inactive

CCOc1ccc(C(=O)Nc2nnc(NC(=S)Nc3ccccc3)s2)cc1
inhibition: inactive

O=C(NCc1ccco1)C1CC2CCC1C2 (configuration not stated)
inhibition: inactive

CSc1ccccc1NC(=O)CN(C)CC(=O)Nc1ccc(N2CCOCC2)cc1
outcome: inactive

Cn1c(=O)c2cc(S(=O)(=O)Nc3cc(C(=O)O)cc(C(=O)O)c3)ccc2n(C)c1=O
outcome: inactive

Cc1ccc(CNc2ccc3c(c2)OCO3)c(C)c1
inhibition: inactive

C=CCn1c(C)c(C(C)=O)c(N2CCOCC2)nc1=S
inhibition: inactive

COC(=O)c1cccc(-n2c(C)cc(C=O)c2C)c1
outcome: inactive

CCC(CC)C(=O)Nc1cccc(S(=O)(=O)c2cccc(NC(=O)C(CC)CC)c2)c1
inhibition: inactive

CCOC(=O)c1nc(Nc2ccc(N3CCC(C)CC3)cc2)c2ccccc2n1
outcome: inactive

Cc1cccc(-n2c(O)c(/C=N/N3CCOCC3)c(=O)[nH]c2=S)c1
inhibition: inactive

Cc1ccc2c(C)c(C(=O)Nc3nnc(C)s3)oc2c1
inhibition: inactive

CNC(=O)c1c(N)sc2c1CCCCC2
inhibition: inactive

CCN(C(=O)COC(=O)c1cc(-c2ccc(C)o2)nc2ccccc12)C1CCS(=O)(=O)C1 (configuration not stated)
inhibition: inactive

CCN(CC)c1ccc(NC(=O)c2ccccc2)cc1S(=O)(=O)Nc1ccccc1OC
inhibition: inactive

Cc1ccc(/C=C/C(=O)c2ccccc(=O)c2O)cc1C
inhibition: inactive

Cc1nn(-c2ccc(Cl)cc2)c(Cl)c1/C=C(\C#N)C(N)=O
inhibition: inactive

Cc1ccc(C2=N/C(=C/c3cccs3)C(=O)N2Nc2ccccc2)cc1
inhibition: inactive

Cc1ccc(-c2nc3c(c(=O)[nH]c(=O)n3Cc3ccccc3)n2Cc2ccccc2)o1
inhibition: inactive

CCCn1c(N2CCN(C)CC2)nc2c1c(=O)[nH]c(=O)n2C
inhibition: inactive

CCCCc1ccc(NC(=S)NCc2ccc(OC)cc2)cc1
outcome: inactive

BrC(=C\c1ccccc1)/C=N/N1CCN(c2ccccc2)CC1
outcome: inactive

Cc1cccc(N2CCN(C(=S)Nc3ccc4nc(N5CCN(C)CC5)cc(C)c4c3)CC2)c1C
inhibition: inactive

Cc1cc(N2CCN(C)CC2)nc2ccc(NC(=S)N3CCCCC3)cc12
inhibition: inactive

COC(=O)c1ccc(-n2nnnc2SCC(=O)Nc2cc(OC)ccc2OC)cc1
inhibition: inactive

CC(=O)NC1=C(NC2CCS(=O)(=O)C2)C(=O)c2ccccc2C1=O (configuration not stated)
inhibition: inactive

Cc1ccc(C)c(N2CCN(C(=S)Nc3ccc4nc(N5CCN(C)CC5)cc(C)c4c3)CC2)c1
inhibition: inactive

Cc1nc2ccccc2n1CSc1ccccc1
inhibition: inactive
